Results on 1 compound are retold here after patent US20240060990A1, “SPATIAL SIGNALING NETWORKS FOR MULTIPLEXED DRUG RESPONSE MEASUREMENT AND MODELING” (Georgia Tech Research Corporation, priority 2022, published 2024).

“Also recorded” adds a separate entry of the source.

Assay [1] deals with Mcl-1/Bak. As to conditions: HCC827 cells, 100 nM, 12 h, 5 PPI dataset. The protocol: (§1) Following that, the cells were then fixed and permeabilized with 1.6% formaldehyde in 1×PBS for 10 minutes at RT and 0.5% Triton X-100 for 10 minutes at RT, respectively. The cells were then blocked using a cell staining medium (CSM) containing 0.5% BSA, and 0.02% Sodium Azide in PBS. […] HCC827 cells were stained with p-ERK overnight followed by 1-hour incubation of secondary antibodies at RT, and 10 mins DAPI staining. The cells were then imaged at 40× magnification, and the intensity levels were analyzed. […] The coverslip was mounted to an acrylic holder for multiple cycles of staining.
(§2) RapMPI on cell cultures: For single color detection, each coverslip prepared with cells was stained with multiple PPIs with one PPI per cycle. The cells were fixed, permeabilized, and then ready for the following staining steps: 1) block the sample with Duolink blocking solution; 2) incubate it with one pair of proteins, conjugated to one PLUS and one MINUS oligonucleotide at 4° C. overnight.
PPI detection: PPI signals were detected using a custom algorithm leveraging a traditional image processing pipeline. More specifically, each PPI image was preprocessed as followed: images were first transformed using a top-hat filter of size 3 pixels to reduce the noise around PPI signals, then Laplacian of Gaussian images was used to detect bright local maxima as PPI signals. […]

Assay [2] deals with PC9 cells. As to the kind of experiment: RapMIF pixel clustering and spatial signaling network. Format: cell-based, human. The source says:
Pixel clustering: Pixel phenotypes were clustered in a two-step clustering pipeline (FIG. 6A). From each pixel location within the cell segmented region, the intensity value of each marker expression was extracted. The resulting feature matrix consisted of n rows of a total number of pixels and p columns equal to the number of markers. Each column of the feature matrix was min-max normalized. Then to filter out the background, each pixel location (row in the matrix) with all markers intensity lower than 0.3 was considered as background and dropped from the feature matrix. The cut-off of 0.3 was determined empirically so noise was filtered out of the cell segmented region. The feature matrix was first clustered using the K-Means algorithm with a high number of clusters (k=60). Then, the mean expression per cluster was calculated and the cluster was merged based on hierarchical clustering on the cosine similarity of the mean expression using the average linkage method with a tolerance of 0.2 of the maximum distance between clusters. The latent feature space was obtained using Uniform manifold approximation and projection (UMAP) and cluster labels were visualized by assigning each cluster color and reprojected on the UMAP embedding. A Heatmap of the mean expression level of marker per cluster was generated to show the variation of cluster phenotype.
Spatial signaling network: The network representation of spatial signaling was represented using the spatial information of pixel clustering. Each cluster was represented by a node with node size in the network proportional to the number of pixels in the corresponding cluster. For each cluster, the distribution of the neighbor cluster was calculated by looking at the 2-hop neighbor's cluster of all pixels in the cluster. The edge color represented low (blue) to high (red) neighboring probability between two clusters.

For assay [3], the system named is HCC827 cells. As to the kind of experiment: PPI network motif frequency in HCC827 cells. Type of assay: cell-based, human. An excerpt: Spatial Graph Construction: For each detected PPI in a cell, the corresponding 2D or 3D localization was extracted, and a node was assigned in the created graph. The node labels are assigned by creating a one-hot encoding of the corresponding PPI detected for the node. Delaunay triangulation was used to create edges connecting the nodes in the graph and therefore create a PPI spatial graph for each cell. The models are trained in a multi-instance learning framework, that is a cell label for each instance was assigned based on the cell treatment condition of a group.

The test system of assay [4] is PC9 cells. As to the kind of experiment: Pearson correlation of single-cell mean marker intensity (RapMIF). Format: cell-based, human. The protocol:
Correlation analysis: Correlation between pairs of cells was performed based on the mean intensity level for a pair of markers across all the cells (FIGS. 5A-5F). The correlation between pairwise markers at the cell level was investigated to identify co-expression patterns. For the correlation analysis, the Pearson correlation of pairwise markers at the single-cell level was quantified by using the mean intensity distribution for pairs of markers across the cells (FIGS. 5E-5F, FIGS. 7C-7D). The per cell mean intensity was first extracted for all markers to obtain a vector of mean intensities per cell. The nuclei and cytosol region were then separated for each cell and extracted one vector of mean intensities in the cytosol and another vector of mean intensities in the nuclei per cell. To confirm the bleaching efficiency, the mean intensity correlations of the before and after bleach images was compared. The 3-way correlation was calculated with the adjusted-R^2 value of the linear regression model of one marker predicted by the two others. Specifically, the expression of the maker on the z-axis was predicted by the two markers on the x and y-axis using a 3D scatter plot.

Assay [5] relates to Cyclin E/CDK2. Kind of assay: RapMPI (multiplexed PLA) PPI counts in HCC827 cells. As to conditions: 100 nM, 12 h, 5 PPI dataset. Format: cell-based, human. The protocol:
as §1, §2
PPI detection: PPI signals were detected using a custom algorithm leveraging a traditional image processing pipeline. More specifically, each PPI image was preprocessed as followed: images were first transformed using a top-hat filter of size 3 pixels to reduce the noise around PPI signals, then Laplacian of Gaussian images was used to detect bright local maxima as PPI signals. In 3D images, double detection of PPI was filtered out at the same position in consecutive Z stacks. After detecting all the PPI locations in 3D, PPI was observed within a 2.5-pixel radius (0.045 um) by creating a PPI neighborhood graph of radius threshold 2.5 pixels and getting all connected components in the graph. Finally, the mean position of the unique connected components in the graph was extracted as identified unique PPI signals in 3D.

In assay [6] the test system is MEK/ERK signaling. Kind of assay: RapMPI on HCC827 xenograft tissue. Format: in vivo, mouse. Conditions: 2-month vs 1-week treatment. An excerpt: (§3) Tissues: HCC827-derived mouse xenografts were provided by Dr. Sun Shi-yong (Emory University). […] Mice were then euthanized, and the tumor was embedded in OCT for sectioning. The OCT tissues were fixed in acetone, rehydrated, permeabilized in 0.4% Triton X-100, blocked, and ready for multiplexed experiments.
(§4) The staining settings were the same as the RapMPI in cell cultures. The blocking step between cycles for tissue multiplexing was skipped to avoid hiding the signals. The tissue samples were mounted with 10% glycerol made in 1×PBS and covered the slide using a 24×50 mm No. 1 coverslip (3322, Thermo Scientific) to prevent evaporation during imaging. To de-coverslip the sample after imaging, the slide was placed in a vertical jar containing 1×PBS for around 10 minutes, and the coverslip was released due to gravity.
(§5) To avoid loss of PPI information due to cell segmentation error, a nearest-distance-based assignment method was used to assign the PPI signal detected and not in any cell segmentation mask. For each PPI signal not in any segmented cell regions, the nearest cell mask pixel was observed and if the distance was lower than a user-defined value, it was assigned to the cell to which the nearest cell mask pixel belonged.

Assay [7] relates to AKT/mTOR pathways. Kind of assay: RapMPI on HCC827 xenograft tissue. Conditions: 2-month vs 1-week treatment. Type of assay: in vivo, mouse.
Excerpt: as §3, §4, §5

The test system of assay [8] is cyclin E/CDK2. As to the kind of experiment: RapMPI on HCC827 xenograft tissue. Type of assay: in vivo, mouse. Conditions: 1-week treatment (responders).
Excerpt: as §3, §4, §5

For `C=CC(=O)Nc1cc(Nc2nccc(-c3cn(C)c4ccccc34)n2)c(OC)cc1N(C)CCN(C)C` [Osimertinib], the “Mcl1/Bak interaction (PPI count), cytoplasm or whole cell” value in assay [1] was “did not exhibit an obvious change”. The spatial signaling networks entry in assay [2] is recorded as “altered”. Also, the “p-β-catenin clusters 12 and 19: degree of node and neighborhoods” value in assay [2] (40 nM vs control) is “higher degree of a node and more neighborhoods with p-EGFR clusters”. For the same compound, the “distribution of spatial signaling network maps in the cytosol (clusters 0, 1, 2)” value in assay [2] (40 nM, 48 hours vs control) was “more dispersed (i.e., less aggregated) distribution in the cytosol; also recorded: more dispersed distribution in the cytosol”. For the same compound, the “proportion (frequency) of cluster 2 (WNT1) and cluster 6 (non-p-β-catenin)” value in assay [2] (after 40 nM drug treatment) is recorded as “occupied a large proportion (frequency) after drug treatment”. Besides, in assay [2] (control vs 40 nM), the “degree of the node of WNT1 in cluster 2” value was “reduced from 10 to 4”. Besides, in assay [3] (5 PPI network), the “motif 9 (p-ERK/c-Myc & p-ERK/c-Myc) autoregulation” value is on record as “Increased autoregulation” and the “three-node motif 17 (Tead1/Yap&Tead1/Yap& p-ERK/c-Myc)” value is given as “more interactions”. In assay [3] (9 PPIs dataset), the “autoregulation of cyclin D1/CDK2 in motif 0 and motif 45” value was “inhibited”; the “interaction between sox2/oct4 and Cyclin D1/CDK4 (motif 2, motif 47)” value is on record as “downregulation”. The “correlation of WNT1 with p-AKT” value in assay [4] (40 nM) is listed as “high correlation with p-AKT in the presence of the drug”. In assay [4] (40 nM vs control), the “correlation between p-EGFR and non-p-β-catenin” value is “higher positive correlation between p-EGFR and non-p-β-catenin compared to the control”. In addition, the “correlation of p-EGFR with p-AKT (single-cell mean intensity)” value in assay [4] (40 nM, 48 hours) was “high correlation to p-AKT after drug treatment”. Further, the “correlation of WNT1 with p-EGFR” value in assay [4] (control and 40 nM) is “low correlation with p-EGFR in both conditions”. Further, in assay [5], the “interaction between cyclin E and CDK2 (PPI count)” value is given as “effectively inhibited”. Moreover, the “MEK/ERK signaling in pan-cytokeratin positive regions” value in assay [6] is “enhanced”. The “AKT/mTOR pathways in pan-cytokeratin positive regions” value in assay [7] is listed as “downregulating”. For the same compound, the “cyclin E/CDK2 PPI in responders” value in assay [8] is given as “downregulation”.
